Measured values: patent US6482921B1, “Uridyl peptide antibiotic (UPA) derivatives, their synthesis and use” (Essential Therapeutics, Inc., priority 1999, dated 2002)
Values after ≈ are worked out from the molar mass of the structure shown.

Tests used:
Format in all cases: cell-based
[1] = system: Pseudomonas aeruginosa PAM 1154; assay: MIC broth microdilution, P. aeruginosa PAM 1154 (OprM::Hg); conditions: P. aeruginosa PAM 1154 OprM::Hg
[2] = system: Escherichia Coli MC 4100 AcrAB; assay: MIC broth microdilution, E. coli MC 4100 AcrAB (ΔAcrAB); conditions: E. coli AcrAB
[3] = system: Staphylococcus aureus 8325-4; assay: MIC broth microdilution, S. aureus 8325-4 (wild type); conditions: S. aureus 8325-4
Escherichia Coli MC 4100 = assay: MIC broth microdilution, E. coli MC 4100 (wild type); conditions: E. coli MC 4100
[4] = system: Pseudomonas aeruginosa PAM 1135; assay: MIC broth microdilution, P. aeruginosa PAM 1135 (high level UPA resistance); conditions: P. aeruginosa PAM 1135 UPA1^r
[5] = system: Pseudomonas aeruginosa PAM 1323; assay: MIC broth microdilution, P. aeruginosa PAM 1323 (medium level UPA resistance)
Description: Compounds were tested against several panels of bacteria. In a first panel, Table 3, several strains of Pseudomonas aeruginosa, Escherichia coli and Staphylococcus aureus were employed as the target bacteria.
For the bacteria in Table 3, the assay was performed in Mueller-Hinton Broth (MHB) with a final bacterial inoculum of 5×10^5 CFU/ml and a final volume of 100 μl. Control drugs, including imipenem and pacidimycin 4, and the test compounds were prepared at a concentration which was twice the desired final concentration (256 μg/ml). Dilution of the controls and the test compounds was accomplished directly on the test plates by serial 2-fold dilution using a multi-channel pipette. Both a positive and a negative growth control was included in each plate.
The bacterial inocula were prepared as follows. Bacterial strains were grown overnight at 35° C. in MHB. […] The culture was then diluted 1:10 and allowed to grow for an additional one hour at 35° C. in a shaking incubator. The inocula were then prepared by diluting the early log phase (one hour) cultures 1:2000 with fresh MHB. A volume of 50 μl of the inocula was added to each well, resulting in an inoculum of approximately 5×10^5 CFU/ml. The exact inocula were determined by putting 10 μl of 10-fold serial dilution of the bacterial suspensions onto TSA. After overnight incubation at 35° C., colony-forming units were counted manually.
The microtiter plates were incubated for 20 hours at 35° C. and were then read using a microtiterplate reader (Molecular Devices) at 650 nm as well as being visually observed using a microtiterplate reading mirror.

[6] = system: Pseudomonas aeruginosa PAM 1020; assay: MIC broth microdilution, P. aeruginosa PAM 1020 (wild type); conditions: P. aeruginosa PAM 1020
[7] = system: Staphylococcus aureus ATCC 29213; assay: MIC broth microdilution, S. aureus ATCC 29213 (wild type); conditions: S. aureus ATCC 29213
[8] = system: Escherichia Coli MC 4100 AcrAB UPA3r; assay: MIC broth microdilution, E. coli MC 4100 AcrAB UPA3r (ΔAcrAB, UPA resistant); conditions: E. coli AcrAB UPA3^r
[9] = system: Pasteurella multocida pm002; assay: MIC broth microdilution, P. multocida pm002 (wild type)

| SMILES | MIC (μg/ml) Broth microdilution [1] | MIC (μg/ml) Broth microdilution [2] | MIC (μg/ml) Broth microdilution [3] | MIC (μg/ml) Broth microdilution (Escherichia Coli MC 4100) | MIC (μg/ml) Broth microdilution [4] | MIC (μg/ml) Broth microdilution [5] | MIC (μg/ml) Broth microdilution [6] | MIC (μg/ml) Broth microdilution [7] | MIC (μg/ml) Broth microdilution [8] | MIC (μg/ml) Broth microdilution [9] |
| --- | --- | --- | --- | --- | --- | --- | --- | --- | --- | --- |
| CSCCC(NC(=O)NC(Cc1c[nH]c2ccccc12)C(=O)O)C(=O)NC(C(=O)NCC1CC(O)C(n2ccc(=O)[nH]c2=O)O1)C(C)N(C)C(=O)CN [Compound 112, 1-[5′-[(2S,3S)-N^2-[N-[[(1S)-1-Carboxy-2-indol-3-ylethyl]carbamoyl]-L-methionyl]-N^3-glycyl-N^3-methyl-2,3-diaminobutyramido]-3′,5′-dideoxy-α-L-arabinofuranosyl]uracil] | 4 µg/mL (≈ 5.26 µM) | 2 µg/mL (≈ 2.63 µM) | >512 µg/mL | >512 µg/mL | >512 µg/mL | 256 µg/mL (≈ 337 µM) | 16 µg/mL (≈ 21.1 µM) | >512 µg/mL | 16 µg/mL (≈ 21.1 µM) | 128 µg/mL (≈ 168 µM) |
| CC(C(NC(=O)C(Cc1ccc(F)cc1)NC(=O)NC(Cc1c[nH]c2ccccc12)C(=O)O)C(=O)NCC1CC(O)C(n2ccc(=O)[nH]c2=O)O1)N(C)C(=O)C(N)Cc1ccccc1 [Compound 113, 1-[5′-[(2S,3S)-[N-[[(1S)-1-Carboxy-2-indol-3-ylethyl]carbamoyl]-L-4-fluorophenylalanyl]-N^3-L-phenylalanyl-N^3-methyl-2,3-diaminobutyramido]-3′,5′-dideoxy-α-L-arabinofuranosyl]uracil] | 64 µg/mL (≈ 72.4 µM) | 8 µg/mL (≈ 9.05 µM) | >512 µg/mL | >512 µg/mL | >512 µg/mL | >512 µg/mL | 64 µg/mL (≈ 72.4 µM) | >512 µg/mL | 64 µg/mL (≈ 72.4 µM) | 512 µg/mL (≈ 579 µM) |
| CC(C(NC(=O)C(Cc1ccccc1)NC(=O)NC(Cc1c[nH]c2ccccc12)C(=O)O)C(=O)NCC1CC(O)C(n2ccc(=O)[nH]c2=O)O1)N(C)C(=O)C(N)Cc1ccc(F)cc1 [Compound 114, 1-[5′-((2S,3S)-N^2-[N-[[(1S)-1-Carboxy-2-indol-3-ylethyl]carbamoyl]-L-phenylalanyl]-N^3-L-4-fluorophenylalanyl-N^3-methyl-2,3-diaminobutyramidol-3′,5′-dideoxy-α-L-arabinofuranosyl]uracil] | 16 µg/mL (≈ 18.1 µM) | 8 µg/mL (≈ 9.05 µM) | >512 µg/mL | 512 µg/mL (≈ 579 µM) | 256 µg/mL (≈ 290 µM) | 256 µg/mL (≈ 290 µM) | 16 µg/mL (≈ 18.1 µM) | >512 µg/mL | 512 µg/mL (≈ 579 µM) | 256 µg/mL (≈ 290 µM) |
| CC(C(NC(=O)C(Cc1ccc(F)cc1)NC(=O)NC(Cc1c[nH]c2ccccc12)C(=O)O)C(=O)NCC1CC(O)C(n2ccc(=O)[nH]c2=O)O1)N(C)C(=O)CN [Compound 116, 1-[5′-[(2S,3S)-N^2-[N-[[(1S)-1-Carboxy-2-indol-3-ylethyl)carbamoyl]-L-4-fluorophenylalanyl]-N^3-glycyl-N^3-methyl-3-diaminobutyramido]-3′,5′-dideoxy-α-L-arabinofuranosyl]uracil] | 8 µg/mL (≈ 10.1 µM) | <1 µg/mL | 256 µg/mL (≈ 322 µM) | 256 µg/mL (≈ 322 µM) | >512 µg/mL | 512 µg/mL (≈ 645 µM) | 32 µg/mL (≈ 40.3 µM) | 512 µg/mL (≈ 645 µM) | 16 µg/mL (≈ 20.2 µM) | 128 µg/mL (≈ 161 µM) |
| CC(C(NC(=O)C(Cc1ccc(F)cc1)NC(=O)NC(Cc1c[nH]c2ccccc12)C(=O)O)C(=O)NCC1CC(O)C(n2ccc(=O)[nH]c2=O)O1)N(C)C(=O)C(N)Cc1ccc(F)cc1 [Compound 118, 1-[5′-(2S,3S)-N^2-[N-[[(1S)-1-Carboxy-2-indol-3-ylethyl]carbamoyl]-L-4-fluorophenylalanyl]-N^3-L-4-fluorophenylalanyl-N^3-methyl-2,3-diaminobutyramido]-3′,5′-dideoxy-α-L-arabinofuranosyl]uracil] | 128 µg/mL (≈ 142 µM) | 8 µg/mL (≈ 8.87 µM) | >512 µg/mL | 512 µg/mL (≈ 568 µM) | 256 µg/mL (≈ 284 µM) | 256 µg/mL (≈ 284 µM) | 128 µg/mL (≈ 142 µM) | >512 µg/mL | 256 µg/mL (≈ 284 µM) | 256 µg/mL (≈ 284 µM) |
| CC(N)C(=O)N(C)C(C)C(NC(=O)C(Cc1cccs1)NC(=O)NC(Cc1ccc(O)cc1)C(=O)O)C(=O)NCC1CC(O)C(n2ccc(=O)[nH]c2=O)O1 [Compound 119, 1-[5-[(2S,3S)-N^3-L-Alanyl-N^2-[N-[[(1S)-1-carboxy-4-hydroxyphenethyl]carbamoyl]-L-3-(2-thienyl)alanyl]-N^3-methyl-2,3-diaminobutyramido]-3′,5′-dideoxy-α-L-arabinofuranosyl]uracil] | 32 µg/mL (≈ 41.4 µM) | 4 µg/mL (≈ 5.18 µM) | >512 µg/mL | >512 µg/mL | >512 µg/mL | >512 µg/mL | 64 µg/mL (≈ 82.8 µM) | >512 µg/mL | 64 µg/mL (≈ 82.8 µM) | >512 µg/mL |
| CC(C)CC(NC(=O)NC(Cc1ccc(O)cc1)C(=O)O)C(=O)NC(C(=O)NCC1CC(O)C(n2ccc(=O)[nH]c2=O)O1)C(C)N(C)C(=O)CN [Compound 120, 1-[5′-[(2S,3S)-N^2-[N-[[(1S)-1-Carboxy-4-hydroxyphenethyl]carbamoyl]-L-leucyl)-N^3-glycyl-N^3-methyl-2,3-diaminobutyramidol-3′,5′-dideoxy-α-L-arabinofuranosyl]uracil] | 4 µg/mL (≈ 5.57 µM) | 8 µg/mL (≈ 11.1 µM) | >512 µg/mL | >512 µg/mL | >512 µg/mL | 512 µg/mL (≈ 712 µM) | 16 µg/mL (≈ 22.3 µM) | >512 µg/mL | 128 µg/mL (≈ 178 µM) | 512 µg/mL (≈ 712 µM) |
| CC(NC(=O)NC(Cc1c[nH]c2ccccc12)C(=O)O)C(=O)NC(C(=O)NCC1CC(O)C(n2ccc(=O)[nH]c2=O)O1)C(C)N(C)C(=O)CN [Compound 121, 1-[5′1-[(2S,3S)-N^2-[N-[[(1S)-1-Carboxy-2-indol-3-ylethyl)carbamoyl]-L-alanyl]-N^3-glycyl-N^3-methyl-2,3-diaminobutyramido]-3′,5′-dideoxy-α-L-arabinofuranosyl]uracil] | 4 µg/mL (≈ 5.72 µM) | 2 µg/mL (≈ 2.86 µM) | >512 µg/mL | >512 µg/mL | >512 µg/mL | >512 µg/mL | 64 µg/mL (≈ 91.5 µM) | >512 µg/mL | 16 µg/mL (≈ 22.9 µM) | >512 µg/mL |
| CC(N)C(=O)N(C)C(C)C(NC(=O)C(Cc1ccccc1)NC(=O)NC(Cc1ccccc1)C(=O)O)C(=O)NCC1CC(O)C(n2ccc(=O)[nH]c2=O)O1 [Compound 122, 1-[5′-[[(2S,3S)-N^3-L-Alanyl-N^2-[N-[[(1S)-1-carboxy-phenethyl]carbamoyl]-L-phenylalanyl]-N^3-methyl-2,3-diaminobutyramido]-3′,5′-dideoxy-α-L-arabinofuranosyl]uracil] | 16 µg/mL (≈ 21.3 µM) | 4 µg/mL (≈ 5.33 µM) | 512 µg/mL (≈ 682 µM) | >512 µg/mL | >512 µg/mL | >512 µg/mL | 64 µg/mL (≈ 85.2 µM) | >512 µg/mL | 64 µg/mL (≈ 85.2 µM) | >512 µg/mL |
